Assay results: patent US10030020B2, “Spirocycle compounds and methods of making and using same” (Abide Therapeutics, Inc., priority 2016, dated 2018)

How the values were obtained:
[1] = biological target: T1, ABHD6 (Mus musculus (Mouse), UniProt Q8R2Y0); assay: In vitro competitive activity-based protein profiling (mouse brain membrane fraction or cell lysates), ABHD6 band; assay type: biochemical; conditions: mouse; for inhibition at 1 µM: read-out: ABHD6 % Inh 1 μM (mouse)
Outline: (§1)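 Residual hydrolase activity was measured as gel band fluorescence after FP-Rh labelling (30 min, 37° C) of proteomes pretreated 30 min at 37° C with inhibitor.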

[2] = biological target: MAGL (Homo sapiens (Human), UniProt Q99685); assay: In vitro competitive activity-based protein profiling (human prefrontal cortex or cell membrane fractions; hMAGL expressed in HEK293T cells); assay type: biochemical; conditions: human
MAGL (Homo sapiens (Human), UniProt Q99685), sequence (Q99685 whole entry): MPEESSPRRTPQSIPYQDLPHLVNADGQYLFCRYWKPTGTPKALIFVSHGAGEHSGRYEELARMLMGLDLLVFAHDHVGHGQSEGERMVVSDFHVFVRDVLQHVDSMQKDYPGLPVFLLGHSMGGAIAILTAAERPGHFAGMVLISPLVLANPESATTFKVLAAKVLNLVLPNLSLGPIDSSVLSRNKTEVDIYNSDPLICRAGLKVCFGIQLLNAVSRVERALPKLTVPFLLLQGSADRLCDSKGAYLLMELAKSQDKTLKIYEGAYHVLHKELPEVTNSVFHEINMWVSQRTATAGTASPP
Outline: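 Human prefrontal cortex or cell membrane proteomes (1.0-2.0 mg/mL), or lysates of HEK293T cells expressing hMAGL diluted into mock proteome, preincubated with inhibitor 30 min at 37° C. FP-Rh or JW912 probe then added for 30 min at room temperature. Residual labeling resolved by SDS-PAGE.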

[3] = biological target: T2, FAAH (Mus musculus (Mouse), UniProt O08914); assay: In vitro competitive activity-based protein profiling (mouse brain membrane fraction or cell lysates), FAAH band; assay type: biochemical; conditions: mouse; for inhibition at 1 µM: read-out: FAAH % Inh 1 μM (mouse)
T2 sequence (O08914 whole entry): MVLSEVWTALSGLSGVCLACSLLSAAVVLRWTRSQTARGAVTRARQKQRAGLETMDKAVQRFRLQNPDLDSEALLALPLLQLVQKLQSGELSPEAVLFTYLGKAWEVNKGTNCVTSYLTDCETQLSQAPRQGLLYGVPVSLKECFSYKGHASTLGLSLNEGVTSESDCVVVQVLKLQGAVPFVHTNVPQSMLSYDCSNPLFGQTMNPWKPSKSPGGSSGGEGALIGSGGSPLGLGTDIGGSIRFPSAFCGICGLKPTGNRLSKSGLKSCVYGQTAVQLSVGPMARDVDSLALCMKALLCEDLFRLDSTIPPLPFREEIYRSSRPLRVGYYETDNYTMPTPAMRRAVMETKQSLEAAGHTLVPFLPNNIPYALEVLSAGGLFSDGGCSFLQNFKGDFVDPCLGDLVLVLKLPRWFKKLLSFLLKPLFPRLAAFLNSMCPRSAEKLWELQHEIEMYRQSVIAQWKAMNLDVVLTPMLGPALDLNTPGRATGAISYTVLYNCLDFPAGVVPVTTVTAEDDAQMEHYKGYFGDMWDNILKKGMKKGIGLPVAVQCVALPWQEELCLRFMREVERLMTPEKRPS
Outline: as §1

[4] = biological target: T3, MAGL (Mus musculus (Mouse), UniProt O35678); assay: In vitro competitive activity-based protein profiling (mouse brain membrane fraction or cell lysates), MAGL band; assay type: biochemical; conditions: mouse; for inhibition at 1 µM: read-out: MAGL % Inh 1 μM (mouse)
T3 sequence (O35678 whole entry): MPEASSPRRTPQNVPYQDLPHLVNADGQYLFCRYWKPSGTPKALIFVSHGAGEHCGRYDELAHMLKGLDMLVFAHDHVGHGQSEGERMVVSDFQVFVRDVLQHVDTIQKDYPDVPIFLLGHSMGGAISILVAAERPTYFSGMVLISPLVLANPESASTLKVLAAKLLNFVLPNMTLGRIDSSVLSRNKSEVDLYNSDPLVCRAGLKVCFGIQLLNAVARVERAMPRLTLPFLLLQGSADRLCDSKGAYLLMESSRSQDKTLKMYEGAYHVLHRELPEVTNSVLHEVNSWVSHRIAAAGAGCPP
Protocol: In Vitro Competitive Activity-Based Protein Profiling.
Proteomes (mouse brain membrane fraction or cell lysates) (50 μL, 1.0 mg/mL total protein concentration) were preincubated with varying concentrations of inhibitors at 37° C. After 30 min, FP—Rh (1.0 μL, 50 μM in DMSO) was added and the mixture was incubated for another 30 min at 37° C. Reactions were quenched with SDS loading buffer (50 μL-4×) and run on SDS-PAGE.

[5] = biological target: T1, ABHD6; assay: Mouse brain proteomes from inhibitor treated mice (oral gavage, sacrificed 4 h after administration, ABPP analysis), ABHD6; assay type: in vivo, mouse (C57Bl/6J); conditions: 5 mg/kg oral gavage
Outline: (§2)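 Percent inhibition in brain tissue measured by ABPP 4 h after a single oral gavage dose (5 mg/kg) to wild-type C57Bl/6J mice; vehicle was, for example, PEG400/Ethanol/PBS at 7/2/1.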

[6] = biological target: T2, FAAH; assay: Mouse brain proteomes from inhibitor treated mice (oral gavage, sacrificed 4 h after administration, ABPP analysis), FAAH; assay type: in vivo, mouse (C57Bl/6J); conditions: 5 mg/kg oral gavage
Outline: as §2

[7] = biological target: T3, MAGL; assay: Mouse brain proteomes from inhibitor treated mice (oral gavage, sacrificed 4 h after administration, ABPP analysis); assay type: in vivo, mouse (C57Bl/6J); conditions: 5 mg/kg oral gavage
Outline: as §2

T1 sequence (Q8R2Y0 whole entry): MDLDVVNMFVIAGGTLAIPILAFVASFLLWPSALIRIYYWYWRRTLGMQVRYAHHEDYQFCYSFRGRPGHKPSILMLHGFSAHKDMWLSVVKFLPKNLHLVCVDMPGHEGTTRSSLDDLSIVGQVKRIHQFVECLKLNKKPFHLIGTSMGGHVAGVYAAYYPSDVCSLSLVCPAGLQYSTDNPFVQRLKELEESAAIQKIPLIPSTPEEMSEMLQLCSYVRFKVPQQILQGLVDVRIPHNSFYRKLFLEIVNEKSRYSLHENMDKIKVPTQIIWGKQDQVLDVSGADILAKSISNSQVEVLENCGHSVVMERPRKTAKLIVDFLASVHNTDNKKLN

SMILES	inhibition at 1 µM [1] [%]	IC50 [2] [nM]	inhibition at 1 µM [3] [%]	inhibition at 1 µM [4] [%]	ABHD6 % Inh 5 mg/kg (mouse) [5]	FAAH % Inh 5 mg/kg (mouse) [6]	MAGL % Inh 5 mg/kg (mouse) [7]	IC50 [1] [nM]	IC50 [3] [nM]	IC50 [4] [nM]
O=C(O)C1CCN(c2cc(F)cc(CN3CCCC34CCN(C(=O)OC(C(F)(F)F)C(F)(F)F)CC4)c2)CC1 [Example 236]	< 25	< 100	< 25	> 75	# (# is <25%)	# (# is <25%)	### (### is ≥75%)	–	–	–
O=C(O)C1CCN(Cc2cc(C(F)(F)F)ccc2CN2CCCC23CCN(C(=O)OC(C(F)(F)F)C(F)(F)F)CC3)CC1 [Example 238]	< 25	< 100	< 25	> 75	# (# is <25%)	# (# is <25%)	### (### is ≥75%)	> 1000	> 1000	100 to 1000
O=C(O)C1CCN(c2cc(S(F)(F)(F)(F)F)ccc2CN2CCCC23CCN(C(=O)OC(C(F)(F)F)C(F)(F)F)CC3)CC1 [Example 240]	< 25	< 100	< 25	> 75	# (# is <25%)	# (# is <25%)	### (### is ≥75%)	–	–	–
O=C(O)C1CCN(Cc2cc(CN3CCCC34CCN(C(=O)OC(C(F)(F)F)C(F)(F)F)CC4)cc(C(F)(F)F)c2)CC1 [Example 244]	< 25	< 100	< 25	> 75	# (# is <25%)	# (# is <25%)	### (### is ≥75%)	–	–	–
O=C(O)C1CCN(c2cc(OC(F)(F)F)ccc2CN2CCCC23CCN(C(=O)OC(C(F)(F)F)C(F)(F)F)CC3)CC1 [Example 248]	< 25	< 100	< 25	> 75	# (# is <25%)	# (# is <25%)	### (### is ≥75%)	–	–	–
N#Cc1ccc(CN2CCCC23CCN(C(=O)OC(C(F)(F)F)C(F)(F)F)CC3)c(N2CCC(C(=O)O)CC2)c1 [Example 249]	< 25	< 100	< 25	> 75	# (# is <25%)	# (# is <25%)	## (## is equal to or greater than 25% but less than 75%)	–	–	–
O=C(O)C1CCN(Cc2cc(CN3CCCC34CCN(C(=O)OC(C(F)(F)F)C(F)(F)F)CC4)cc(C(F)(F)F)c2)C1 (centres unmarked) [Example 253]	< 25	< 100	< 25	> 75	# (# is <25%)	# (# is <25%)	## (## is equal to or greater than 25% but less than 75%)	–	–	–
CC1(C(=O)O)CN(c2cc(C(F)(F)F)ccc2CN2CCC3(CCN(C(=O)OC(C(F)(F)F)C(F)(F)F)CC3)C2)CCO1 (centres unmarked) [Example 256]	< 25	< 100	< 25	> 75	# (# is <25%)	# (# is <25%)	# (# is <25%)	–	–	–
O=C(O)C1CCN(Cc2cc(C(F)(F)F)ccc2CN2CCCC23CCN(C(=O)OC(C(F)(F)F)C(F)(F)F)CC3)C1 (centres unmarked) [Example 262]	< 25	< 100	< 25	> 75	# (# is <25%)	# (# is <25%)	## (## is equal to or greater than 25% but less than 75%)	–	–	–
CS(=O)(=O)C1CCN(c2cc(C(F)(F)F)ccc2CN2CCCC23CCN(C(=O)OC(C(F)(F)F)C(F)(F)F)CC3)CC1 [Example 267]	≥ 75	< 100	< 25	> 75	# (# is <25%)	# (# is <25%)	# (# is <25%)	–	–	–
CS(=O)(=O)C1CN(c2cc(C(F)(F)F)ccc2CN2CCCC23CCN(C(=O)OC(C(F)(F)F)C(F)(F)F)CC3)C1 [Example 268]	25 to 75	< 100	< 25	> 75	## (## is equal to or greater than 25% but less than 75%)	# (# is <25%)	## (## is equal to or greater than 25% but less than 75%)	–	–	–
O=C(O)C1CCN(Cc2cc(CN3CCCC34CCN(C(=O)OC(C(F)(F)F)C(F)(F)F)CC4)cc(OC(F)(F)F)c2)CC1 [Example 269]	< 25	< 100	< 25	> 75	# (# is <25%)	# (# is <25%)	## (## is equal to or greater than 25% but less than 75%)	–	–	–
O=C(O)C1CCN(Cc2cc(CN3CCCC34CCN(C(=O)OC(C(F)(F)F)C(F)(F)F)CC4)cc(OC(F)(F)F)c2)C1 (centres unmarked) [Example 270]	< 25	< 100	< 25	> 75	# (# is <25%)	# (# is <25%)	## (## is equal to or greater than 25% but less than 75%)	–	–	–
O=C(O)C1CCN(Cc2cc(Cl)cc(CN3CCCC34CCN(C(=O)OC(C(F)(F)F)C(F)(F)F)CC4)c2)C1 (centres unmarked) [Example 272]	< 25	< 100	< 25	> 75	# (# is <25%)	# (# is <25%)	### (### is ≥75%)	–	–	–
O=C(O)[C@H]1CCCCN1c1cc(CN2CCCC23CCN(C(=O)OC(C(F)(F)F)C(F)(F)F)CC3)cc(C(F)(F)F)c1 [Example 274]	25 to 75	< 100	< 25	> 75	# (# is <25%)	# (# is <25%)	### (### is ≥75%)	–	–	–
NC(=O)C1CCN(Cc2cc(C(F)(F)F)ccc2CN2CCCC23CCN(C(=O)OC(C(F)(F)F)C(F)(F)F)CC3)CC1 [Example 275]	25 to 75	< 100	< 25	> 75	# (# is <25%)	# (# is <25%)	### (### is ≥75%)	–	–	–
O=C(O)C1CCN(C(=O)c2cc(C(F)(F)F)ccc2CN2CCCC23CCN(C(=O)OC(C(F)(F)F)C(F)(F)F)CC3)CC1 [Example 281]	25 to 75	< 100	< 25	> 75	# (# is <25%)	# (# is <25%)	# (# is <25%)	–	–	–
